According to ChEMBL document CHEMBL4385598, “A comprehensive review of topoisomerase inhibitors as anticancer agents in the past decade” (Eur J Med Chem, 2019):

Assays:
[1] = test system: Ca-Ski; assay: Cytotoxicity against human CaSki cells assessed as reduction in cell growth incubated for 48 hrs by SRB assay; format: functional, cell-based
[2] = test system: HeLa; assay: Cytotoxicity against human HeLa cells assessed as reduction in cell growth incubated for 48 hrs by SRB assay; format: functional, cell-based
[3] = test system: L1210; assay: Antitumor activity against mouse L1210 cells assessed as reduction in cell viability by MTT assay; format: functional, cell-based
[4] = test system: HL-60; assay: Antitumor activity against human HL60 cells assessed as reduction in cell viability by MTT assay; format: functional, cell-based
[5] = test system: T47D; assay: Cytotoxicity against human T47D cells assessed as reduction in cell growth preincubated for 4 hrs in FBS starvation condition followed by incubation for 2 days by CCK8-based cell counting method; format: functional
[6] = test system: A549; assay: Cytotoxicity against human A549 cells assessed as reduction in cell viability incubated for 24 hrs by MTT assay; format: functional, cell-based; conditions: A549, 24 h
[7] = test system: HCT-116; assay: Cytotoxicity against human HCT116 cells assessed as reduction in cell growth by WST-1 assay; format: functional, cell-based
[8] = test system: K562; assay: Antiproliferative activity against human K562 cells assessed as reduction in cell growth incubated for 48 hrs by MTT assay; format: functional, cell-based; conditions: K562, 48 h
[9] = test system: HeLa; assay: Antiproliferative activity against human HeLa cells assessed as reduction in cell growth incubated for 48 hrs by MTT assay; format: functional, cell-based
[10] = test system: K562/A02; assay: Antiproliferative activity against human K562/A02 cells assessed as reduction in cell growth incubated for 48 hrs by MTT assay; format: functional, cell-based; conditions: K562/A02, 48 h

SMILES	IC50 [3]	IC50 [4]	further results
COc1cc(CN2CCN(c3ccccc3Cl)CC2)c2cc3[n+](cc2c1OC)CCc1cc2c(cc1-3)OCO2.[Cl-]			IC50 [1]: < 6 µg/mL; IC50 [2]: < 6 µg/mL
Oc1cccc(-c2cc(-c3ccccc3Cl)cc(-c3ccsc3)n2)c1			IC50 [5]: 0.68 to 1.25 µM
COc1cc(CN2CCN(c3ccc([N+](=O)[O-])cc3)CC2)c2cc3[n+](cc2c1OC)CCc1cc2c(cc1-3)OCO2.[Cl-]			IC50 [1]: < 6 µg/mL; IC50 [2]: < 6 µg/mL
CCCCCCCCCCCCCCCC(=O)O [PALMITIC ACID]			IC50 [6]: 150 µM
Oc1cccc(-c2cc(-c3ccc(Cl)cc3)cc(-c3ccco3)n2)c1			IC50 [5]: 0.68 to 1.25 µM
COc1cc(CN2CCN(c3cccc(Cl)c3)CC2)c2cc3[n+](cc2c1OC)CCc1cc2c(cc1-3)OCO2.[Cl-]			IC50 [1]: < 6 µg/mL; IC50 [2]: < 6 µg/mL
O=c1c(O)c(-c2cc(O)c(O)c(O)c2)oc2cc(O)cc(O)c12 [MYRICETIN]			IC50 [7]: 28.2 µM
COc1cc([C@@H]2c3cc4c(cc3[C@@H](NC/C=C/c3ccc(CN5CCN(c6ccc([N+](=O)[O-])cc6)CC5)o3)[C@H]3COC(=O)[C@H]23)OCO4)cc(OC)c1OC			IC50 [8]: 6.42 µM; IC50 [9]: 7.93 µM; IC50 [10]: 6.89 µM
Oc1cccc(-c2cc(-c3cccc(Cl)c3)cc(-c3ccsc3)n2)c1			IC50 [5]: 0.68 to 1.25 µM
COc1cc(CN2CCN(c3ccc(C)cc3)CC2)c2cc3[n+](cc2c1OC)CCc1cc2c(cc1-3)OCO2.[Cl-]			IC50 [1]: < 6 µg/mL; IC50 [2]: < 6 µg/mL
Oc1cccc(-c2cc(-c3cccc(Cl)c3)cc(-c3ccco3)n2)c1			IC50 [5]: 0.68 to 1.25 µM

Further lines, with some results ahead:

IC50 [3]	IC50 [4]	SMILES	further results
≤ 25 µM	≤ 25 µM	O=C(N/N=C/c1ccccc1)c1cn(C2CC2)c2cc(N3CCNCC3)c(F)cc2c1=O	
≤ 25 µM	≤ 25 µM	O=C(N/N=C/c1ccccc1)c1cn(C2CC2)c2cc(N/N=C/c3ccccc3)c(F)cc2c1=O	
≤ 25 µM	≤ 25 µM	COc1ccc(/C=N/NC(=O)c2cn(C3CC3)c3cc(N/N=C/c4ccc(OC)cc4)c(F)cc3c2=O)cc1	
≤ 25 µM	≤ 25 µM	O=C(N/N=C/c1ccccc1[N+](=O)[O-])c1cn(C2CC2)c2cc(N3CCNCC3)c(F)cc2c1=O	
≤ 25 µM	≤ 25 µM	O=C(N/N=C/c1ccccc1O)c1cn(C2CC2)c2cc(N/N=C/c3ccccc3O)c(F)cc2c1=O	
≤ 25 µM	≤ 25 µM	COc1cc(/C=N/NC(=O)c2cn(C3CC3)c3cc(N4CCNCC4)c(F)cc3c2=O)cc(OC)c1OC	
≤ 25 µM	≤ 25 µM	O=C(N/N=C/c1ccccc1O)c1cn(C2CC2)c2cc(N3CCNCC3)c(F)cc2c1=O	
≤ 25 µM	≤ 25 µM	O=C(N/N=C/c1ccc(F)cc1)c1cn(C2CC2)c2cc(N/N=C/c3ccc(F)cc3)c(F)cc2c1=O	
≤ 25 µM	≤ 25 µM	COc1ccc(/C=N/NC(=O)c2cn(C3CC3)c3cc(N4CCNCC4)c(F)cc3c2=O)cc1	
≤ 25 µM	≤ 25 µM	O=C(N/N=C/c1ccc2c(c1)OCO2)c1cn(C2CC2)c2cc(N3CCNCC3)c(F)cc2c1=O	
